The text below walks through data of patent publication US20240317735A1, “HYDROISOQUINOLINE OR HYDRONAPHTHYRIDINE COMPOUNDS FOR THE TREATMENT OF AUTOIMMUNE DISEASE” (Hoffmann-La Roche Inc., priority 2020, published 2024).

Molecules are shown by their SMILES.

The assay addresses T1, TLR9 (Homo sapiens, UniProt Q9NR96).
T1 sequence (Q9NR96 26-1032): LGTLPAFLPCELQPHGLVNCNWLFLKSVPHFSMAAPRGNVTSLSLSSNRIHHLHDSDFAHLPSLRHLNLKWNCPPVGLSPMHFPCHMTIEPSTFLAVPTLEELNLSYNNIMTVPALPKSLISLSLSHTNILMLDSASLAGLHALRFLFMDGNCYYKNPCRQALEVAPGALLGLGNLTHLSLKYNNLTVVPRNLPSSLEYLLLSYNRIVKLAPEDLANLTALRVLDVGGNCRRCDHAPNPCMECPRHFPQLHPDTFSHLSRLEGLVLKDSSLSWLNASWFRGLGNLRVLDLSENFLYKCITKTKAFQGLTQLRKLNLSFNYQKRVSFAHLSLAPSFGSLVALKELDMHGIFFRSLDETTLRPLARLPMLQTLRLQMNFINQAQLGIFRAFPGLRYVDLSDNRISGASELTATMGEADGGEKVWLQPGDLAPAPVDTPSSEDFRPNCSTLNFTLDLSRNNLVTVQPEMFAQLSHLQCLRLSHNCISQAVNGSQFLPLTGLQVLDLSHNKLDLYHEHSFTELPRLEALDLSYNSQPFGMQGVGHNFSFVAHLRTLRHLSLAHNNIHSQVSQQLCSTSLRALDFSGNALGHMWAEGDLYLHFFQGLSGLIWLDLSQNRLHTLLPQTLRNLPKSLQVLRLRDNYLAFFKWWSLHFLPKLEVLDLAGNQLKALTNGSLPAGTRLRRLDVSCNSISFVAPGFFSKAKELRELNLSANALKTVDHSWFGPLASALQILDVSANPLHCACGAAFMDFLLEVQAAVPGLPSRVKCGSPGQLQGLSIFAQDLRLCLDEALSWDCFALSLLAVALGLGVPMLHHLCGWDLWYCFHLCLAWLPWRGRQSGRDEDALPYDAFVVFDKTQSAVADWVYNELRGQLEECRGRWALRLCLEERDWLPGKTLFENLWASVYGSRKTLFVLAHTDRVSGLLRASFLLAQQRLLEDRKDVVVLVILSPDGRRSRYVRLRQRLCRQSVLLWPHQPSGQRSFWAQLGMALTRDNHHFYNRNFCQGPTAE
Put plainly: HEK293-Blue-hTLR-9 cells assay (SEAP reporter, ODN2006 stimulation). It counts as cell-based. The arrangement: host or cells: HEK293 (HEK-Blue hTLR9). Particulars: HEK293-Blue-hTLR9 cells, ODN2006, 20 hrs; read-out: HEK/hTLR9 IC50. As for the experimental part: The following tests were carried out in order to determine the activity of the compounds of formula (I) and (Ia) in HEK293-Blue-hTLR-7/8/9 cells assay.
A stable HEK293-Blue-hTLR-9 cell line was purchased from InvivoGen (Cat. #: hkb-htlr9, San Diego, California, USA). These cells were originally designed for studying the stimulation of human TLR9 by monitoring the activation of NF-κB. A SEAP (secreted embryonic alkaline phosphatase) reporter gene was placed under the control of the IFN-β minimal promoter fused to five NF-κB and AP-1-binding sites. The SEAP was induced by activating NF-κB and AP-1 via stimulating HEK-Blue hTLR9 cells with TLR9 ligands. Therefore the reporter expression was declined by TLR9 antagonist under the stimulation of a ligand, such as ODN2006 (Cat. #: tlrl-2006-1, Invivogen, San Diego, California, USA), for incubation of 20 hrs. The cell culture supernatant SEAP reporter activity was determined using QUANTI-Blue™ kit (Cat. #: rep-qb1, Invivogen, San Diego, California, USA) at a wavelength of 640 nm, a detection medium that turns purple or blue in the presence of alkaline phosphatase.
HEK293-Blue-hTLR9 cells were incubated at a density of 250,000-450,000 cells/mL in a volume of 170 μL in a 96-well plate in Dulbecco's Modified Eagle's medium (DMEM) containing 4.5 g/L glucose, 50 U/mL penicillin, […], […], 2 mM L-glutamine, 10% (v/v) heat-inactivated fetal bovine serum with addition of 20 μL test compound in a serial dilution in the presence of final DMSO at 1% and 10 μL of 20 uM ODN2006 in above DMEM, perform incubation under 37° C. in a CO2 incubator for 20 hrs. Then 20 μL of the supernatant from each well was incubated with 180 μL Quanti-blue substrate solution at 37° C. for 2 h and the absorbance was read at 620˜655 nm using a spectrophotometer.
The signaling pathway that TLR9 activation leads to downstream NF-κB activation has been widely accepted, and therefore similar reporter assay was modified for evaluating TLR9 antagonist.
As to `C[C@H]1CN(c2ccnc3c2cnn3C)Cc2ccc(OC[C@@H]3CNCCN3)cc21` [Example 19, (4R)-4-methyl-2-(1-methylpyrazolo[3,4-b]pyridin-4-yl)-6-[[(2S)-piperazin-2-yl]methoxy]-3,4-dihydro-1H-isoquinoline], the IC50 turned out to be 101 nM.
Then `CO[C@@H]1CN(c2ccc3c(c2)[C@@H](C)CN(c2ccnc4c2cnn4C)C3)C[C@H]1N` [Example 20, (3R,4R)-4-methoxy-1-[(4R)-4-methyl-2-(1-methylpyrazolo[3,4-b]pyridin-4-yl)-3,4-dihydro-1H-isoquinolin-6-yl]pyrrolidin-3-amine], with 239 nM; and `C[C@H]1CN(c2ccnc3c2cnn3C)Cc2ccc(N3CC4(CNCCO4)C3)cc21` [Example 21, 2-[(4R)-4-methyl-2-(1-methylpyrazolo[3,4-b]pyridin-4-yl)-3,4-dihydro-1H-isoquinolin-6-yl]-5-oxa-2,8-diazaspiro[3.5]nonane], with 372 nM; and `CCn1ncc2c(N3Cc4ccc(N5CCNCC5)cc4[C@@H](C)C3)ccnc21` [Example 22, (4R)-2-(1-ethylpyrazolo[3,4-b]pyridin-4-yl)-4-methyl-6-piperazin-1-yl-3,4-dihydro-1H-isoquinoline], with 412 nM.
Then `CO[C@@H]1CN(c2ccc3c(c2)[C@@H](C)CN(c2cc(C)nc4c2cnn4C)C3)C[C@H]1N` [Example 23, (3R,4R)-4-methoxy-1-[(4R)-2-(1,6-dimethylpyrazolo[3,4-b]pyridin-4-yl)-4-methyl-3,4-dihydro-1H-isoquinolin-6-yl]pyrrolidin-3-amine], with 115 nM; and `C[C@H]1CN(c2ccnc3c2cnn3C)Cc2ccc(N3C[C@H]4CNCCN4C3=O)cc21` [Example 24, (8aR)-2-[(4R)-4-methyl-2-(1-methylpyrazolo[3,4-b]pyridin-4-yl)-3,4-dihydro-1H-isoquinolin-6-yl]-1,5,6,7,8,8a-hexahydroimidazo[1,5-a]pyrazin-3-one], with 311 nM.
Turning to `C[C@H]1CN(c2ccnc3c2cnn3C)Cc2ccc(N3C[C@@H]4CNCCN4C3=O)cc21` [Example 25, (8aS)-2-[(4R)-4-methyl-2-(1-methylpyrazolo[3,4-b]pyridin-4-yl)-3,4-dihydro-1H-isoquinolin-6-yl]-1,5,6,7,8,8a-hexahydroimidazo[1,5-a]pyrazin-3-one], the IC50 is 291 nM.
Next, `C[C@H]1CN(c2ccnc3c2cnn3C)Cc2ccc(N3CC4(CCNCC4)OC3=O)cc21` [Example 26, 3-[(4R)-4-methyl-2-(1-methylpyrazolo[3,4-b]pyridin-4-yl)-3,4-dihydro-1H-isoquinolin-6-yl]-1-oxa-3,8-diazaspiro[4.5]decan-2-one]: 73 nM; `C[C@H]1CN(c2ccnc3c2cnn3C)Cc2ccc(N3C4CCC3CNC4)cc21` [Example 27, (4R)-6-(3,8-diazabicyclo[3.2.1]octan-8-yl)-4-methyl-2-(1-methylpyrazolo[3,4-b]pyridin-4-yl)-3,4-dihydro-1H-isoquinoline]: 185 nM.
Then `C[C@H]1CN(c2ccnc3c2cnn3C)Cc2ccc(N3CCC(N4CC(N)C4)CC3)cc21` [Example 28, 1-[1-[(4R)-4-methyl-2-(1-methylpyrazolo[3,4-b]pyridin-4-yl)-3,4-dihydro-1H-isoquinolin-6-yl]-4-piperidyl]azetidin-3-amine], with 150 nM; and `C[C@H]1CN(c2ccnc3c2cnn3C)Cc2ccc(N3CCC(N4CC[C@@H](N)[C@H](O)C4)CC3)cc21` [Example 29, trans-4-amino-1-[1-[(4R)-4-methyl-2-(1-methylpyrazolo[3,4-b]pyridin-4-yl)-3,4-dihydro-1H-isoquinolin-6-yl]-4-piperidyl]piperidin-3-ol], with 106 nM.
`Cc1cc(N2Cc3ccc(OC[C@H]4CNCCN4)cc3[C@@H](C)C2)c2cnn(C)c2n1` [Example 30, (4R)-2-(1,6-dimethylpyrazolo[3,4-b]pyridin-4-yl)-4-methyl-6-[[(2R)-piperazin-2-yl]methoxy]-3,4-dihydro-1H-isoquinoline]: the IC50 came out at 88 nM.
Next, `Cc1cc(N2Cc3ccc(OC[C@@H]4CNCCN4)cc3[C@@H](C)C2)c2cnn(C)c2n1` [Example 31, (4R)-2-(1,6-dimethylpyrazolo[3,4-b]pyridin-4-yl)-4-methyl-6-[[(2S)-piperazin-2-yl]methoxy]-3,4-dihydro-1H-isoquinoline]: 105 nM; `C[C@H]1CN(c2ccnc3c2cnn3C)Cc2ccc(N3CCN(S(=O)(=O)C4CCNC4)CC3)cc21` (stereo partly drawn) [Example 33, (4R)-4-methyl-2-(1-methylpyrazolo[3,4-b]pyridin-4-yl)-6-(4-pyrrolidin-3-ylsulfonylpiperazin-1-yl)-3,4-dihydro-1H-isoquinoline]: 326 nM; `C[C@H]1CN(c2ccnc3c2cnn3C)Cc2ccc(N3CC4(CNC4)CC3=O)cc21` [Example 34, 6-[(4R)-4-methyl-2-(1-methylpyrazolo[3,4-b]pyridin-4-yl)-3,4-dihydro-1H-isoquinolin-6-yl]-2,6-diazaspiro[3.4]octan-7-one]: 198 nM.
Next, `C[C@H]1CN(c2ccnc3c2cnn3C)Cc2ccc(N3CC4(CCNC4)OC3=O)cc21` (stereo partly drawn) [Example 35, 3-[(4R)-4-methyl-2-(1-methylpyrazolo[3,4-b]pyridin-4-yl)-3,4-dihydro-1H-isoquinolin-6-yl]-1-oxa-3,7-diazaspiro[4.4]nonan-2-one]: 182 nM; `C[C@H]1CN(c2ccnc3c2cnn3C)Cc2ccc(N3CCN(Cc4cn(C)cn4)CC3)cc21` [Example 37, (4R)-4-methyl-6-[4-[(1-methylimidazol-4-yl)methyl]piperazin-1-yl]-2-(1-methylpyrazolo[3,4-b]pyridin-4-yl)-3,4-dihydro-1H-isoquinoline]: 222 nM.
Next, `C[C@H]1CN(c2ccnc3c2cnn3C)Cc2ccc(N3CCN(CCN(C)C)CC3)cc21` [Example 38, N,N-dimethyl-2-[4-[(4R)-4-methyl-2-(1-methylpyrazolo[3,4-b]pyridin-4-yl)-3,4-dihydro-1H-isoquinolin-6-yl]piperazin-1-yl]ethanamine]: 147 nM; `C[C@H]1CN(c2ccnc3c2cnn3C)Cc2ccc(OCCN3CCNCC3)cc21` [Example 40, (4R)-4-methyl-2-(1-methylpyrazolo[3,4-b]pyridin-4-yl)-6-(2-piperazin-1-ylethoxy)-3,4-dihydro-1H-isoquinoline]: 326 nM.
Turning to `C[C@H]1CN(c2ccnc3c2cnn3C)Cc2ccc(OC3CN(C4CCNCC4)C3)cc21` [Example 41, (4R)-4-methyl-2-(1-methylpyrazolo[3,4-b]pyridin-4-yl)-6-[1-(4-piperidyl)azetidin-3-yl]oxy-3,4-dihydro-1H-isoquinoline], the IC50 came out at 47 nM.
Then `C[C@H]1CN(c2ccnc3c2cnn3C)Cc2ccc(O[C@@H]3C[C@H]4CNCCN4C3)cc21` [Example 42, (4R)-4-methyl-2-(1-methylpyrazolo[3,4-b]pyridin-4-yl)-6-[[(7R,8aS)-1,2,3,4,6,7,8,8a-octahydropyrrolo[1,2-a]pyrazin-7-yl]oxy]-3,4-dihydro-1H-isoquinoline], with 398 nM.
